Here are results for 32 molecules from publication PMC7587356, “High-Throughput Screening for Inhibitors of the SARS-CoV-2 Protease Using a FRET-Biosensor” (Molecules, 2020).

This assay addresses SARS-CoV-2 3CLpro (Severe acute respiratory syndrome coronavirus 2, UniProt P0DTD1). The assay can be described thus: biochemical. To be noted: for inhibition at 5 µM: 4 h. Details: Replicate_1 / Replicate_2 / mean / mean (LOPAC_screen_w_protease): unit not given here. Type of assay: biochemical.
[1] abbreviates: sheet LOPAC_screen_w_protease, primary screen with protease, compound at 5 µM, mean of two replicates, read-out: mean.
The mark [2] stands for this setting: sheet LOPAC_screen_w_protease, primary screen with protease, compound at 5 µM, replicate 1, read-out: Replicate_1.
The mark [3] stands for this setting: sheet LOPAC_screen_w_protease, primary screen with protease, compound at 5 µM, replicate 2, read-out: Replicate_2.
Setting [4] is: sheet LOPAC_screen_w_protease, primary screen with protease, mean of two replicates.
The mark [5] stands for this setting: sheet LOPAC_screen_w_protease, primary screen with protease, replicate 1.
The mark [6] stands for this setting: sheet LOPAC_screen_w_protease, primary screen with protease, replicate 2.
The mark [7] stands for this setting: sheet LOPAC_screen_w_protease, LOPAC1280 primary screen at 5 µM, with protease, mean of the two replicates.
Setting [8] is: sheet LOPAC_screen_w_protease, LOPAC1280 primary screen at 5 µM, with protease, replicate 1.
The mark [9] stands for this setting: sheet LOPAC_screen_w_protease, LOPAC1280 primary screen at 5 µM, with protease, replicate 2.
Where [10] appears, read: sheet LOPAC_screen_w_protease, LOPAC1280 at 5 µM, mean of two replicates.
The mark [11] stands for this setting: sheet LOPAC_screen_w_protease, LOPAC1280 at 5 µM, replicate 1.
Where [12] appears, read: sheet LOPAC_screen_w_protease, LOPAC1280 at 5 µM, replicate 2.
[13] abbreviates: sheet LOPAC_screen_w_protease, primary screen with protease, mean of two replicates, read-out: mean.
The mark [14] stands for this setting: sheet LOPAC_screen_w_protease, primary screen with protease, replicate 1, read-out: Replicate_1.
Where [15] appears, read: sheet LOPAC_screen_w_protease, primary screen with protease, replicate 2, read-out: Replicate_2.
The mark [16] stands for this setting: LOPAC1280 primary screen with protease, 5 µM compound, mean of two replicates.
The mark [17] stands for this setting: LOPAC1280 primary screen with protease, 5 µM compound, replicate 1.
Setting [18] is: LOPAC1280 primary screen with protease, 5 µM compound, replicate 2.
[19] abbreviates: sheet LOPAC_screen_w_protease, primary screen of LOPAC1280 at 5 µM with protease, mean of the two replicates, read-out: mean.
[20] abbreviates: sheet LOPAC_screen_w_protease, primary screen of LOPAC1280 at 5 µM with protease, replicate 1, read-out: Replicate_1.
The mark [21] stands for this setting: sheet LOPAC_screen_w_protease, primary screen of LOPAC1280 at 5 µM with protease, replicate 2, read-out: Replicate_2.

Where a name gives a salt, the structure may show the parent alone. Read-outs that look alike come from different tables or passages of the source.

Regarding `N=C(N)NC(=O)Cc1c(Cl)cccc1Cl` [Guanfacine hydrochloride], the inhibition at 5 µM under setting [1] was 2.62%, the inhibition at 5 µM under setting [2] worked out at 3.74% and the inhibition at 5 µM under setting [3] came out at 1.51%.

For the molecule `NCC(CC(=O)O)c1ccc(Cl)cc1` (racemic) [(±)-Baclofen], the mean under setting [4] was 2.345. For the same molecule, the Replicate_1 under setting [5] is recorded as 1.225. This molecule gave a Replicate_2 under setting [6] of 3.465.

Consider `COc1ccc(CCN(C)CCc2ccc(OC)c(OC)c2)cc1OC.Cl` [YS-035 hydrochloride], for which the mean under setting [7] is reported as 0.8264. The Replicate_1 under setting [8] amounted to 0.7595. Under setting [9], this molecule returned a Replicate_2 of 0.8934.

Under setting [10], `Cc1cccc(C(=O)NCN2CCN(c3ccccc3C#N)CC2)c1.O=C(O)/C=C\C(=O)O` [PD 168,077 maleate] showed a mean of 1.169. This molecule also returned a Replicate_1 under setting [11] of 0.792. Further, the Replicate_2 under setting [12] stood at 1.545.

As for `NC1(C(=O)O)CCc2cc(C(=O)O)ccc21` (stereo not drawn) [AIDA], the mean (sheet LOPAC_screen_w_protease, primary screen of LOPAC1280 at 5 µM with protease, mean of the two replicates) amounted to 3.327. Moreover, the Replicate_1 (sheet LOPAC_screen_w_protease, primary screen of LOPAC1280 at 5 µM with protease, replicate 1) stood at 3.929. Further, where the note is “sheet LOPAC_screen_w_protease, primary screen of LOPAC1280 at 5 µM with protease, replicate 2”, the Replicate_2 is on record as 2.7246.

`C[C@@H](N)Cc1cnc[nH]1.Cl.Cl`: the Replicate_1 was 2.14, the Replicate_2 was -0.08051 and the mean turned out to be 1.03.

In the case of `CNCCCC12CCC(c3ccccc31)c1ccccc12` [Maprotiline hydrochloride], the inhibition at 5 µM is 4% (read-out: Replicate_1), 5.55% (read-out: Replicate_2) and 4.77% (read-out: mean).

For the molecule `CC(=O)CCCCn1c(=O)c2c(ncn2C)n(C)c1=O` [Pentoxifylline], the inhibition at 5 µM under setting [1] came to 2.98%, the inhibition at 5 µM under setting [2] is 2.78% and the inhibition at 5 µM under setting [3] amounted to 3.18%.

In the case of `N=C(N)c1ccccc1` [Benzamidine hydrochloride], the inhibition at 5 µM is, setting by setting: under setting [13], 2.38%; under setting [14], 1.49%; under setting [15], 3.28%.

With `Br.Br.N=C(N)SCCc1cccc(CCSC(=N)N)c1` [1,3-PBIT dihydrobromide], the “mean (LOPAC_screen_w_protease)” value under setting [16] is on record as 1.415. Under setting [17], the “Replicate_1 (LOPAC_screen_w_protease)” value is on record as 1.3545. For the same molecule, under setting [18], the “Replicate_2 (LOPAC_screen_w_protease)” value is 1.476.

For the molecule `CC(C)Cc1ccc([C@H](C)C(=O)O)cc1` [S(+)-Ibuprofen], the “mean (LOPAC_screen_w_protease)” value under setting [16] is on record as 1.7003. Besides, under setting [17], the “Replicate_1 (LOPAC_screen_w_protease)” value is 1.122. Besides, the “Replicate_2 (LOPAC_screen_w_protease)” value under setting [18] was 2.279.

`OC1(c2ccc(Cl)cc2)CCN(Cc2c[nH]c3ccccc23)CC1` [L-741,626] gave a mean (sheet LOPAC_screen_w_protease, LOPAC1280 primary screen with protease, 5 µM compound, mean of the two replicates) of 4.28. This molecule yielded a Replicate_1 (sheet LOPAC_screen_w_protease, LOPAC1280 primary screen with protease, 5 µM compound, replicate 1) of 4.691. The molecule further came in with a Replicate_2 (sheet LOPAC_screen_w_protease, LOPAC1280 primary screen with protease, 5 µM compound, replicate 2) of 3.869.

In the case of `CC(=O)c1ccc(S(=O)(=O)NC(=O)NC2CCCCC2)cc1` [Acetohexamide], the inhibition at 5 µM reads like this: under setting [19], 3.3%; under setting [20], 2.5%; under setting [21], 4.1%.

For `N=C(NCCC[C@H](N)C(=O)O)N[N+](=O)[O-]` [NG-Nitro-L-arginine], the inhibition at 5 µM under setting [19] is 3.68%, the inhibition at 5 µM under setting [20] stood at 2.33% and the inhibition at 5 µM under setting [21] was found to be 5.04%.

In the case of `CCn1cc(C(=O)O)c(=O)c2cc3c(cc21)OCO3` [Oxolinic acid], the inhibition at 5 µM by setting is: under setting [19], 3.24%; under setting [20], 3.47%; under setting [21], 3%.

On to `CC(=O)Oc1cc(C(C)C)c(OCCN(C)C)cc1C` [Moxisylyte hydrochloride], for which the inhibition at 5 µM reads like this: under setting [19], 3.55%; under setting [20], 4.09%; under setting [21], 3.01%.

For `CC(C)N(CCC(C(N)=O)(c1ccccc1)c1ccccn1)C(C)C` (stereo not drawn) [Disopyramide phosphate], the inhibition at 5 µM reads like this: under setting [1], 2.74%; under setting [2], 4.07%; under setting [3], 1.41%.

For `CC(=O)OCC1=C(C(=O)O)N2C(=O)[C@@H](NC(=O)Cc3cccs3)[C@H]2SC1` [Cephalothin sodium], the inhibition at 5 µM (sheet LOPAC_screen_w_protease, LOPAC1280 primary screen with protease, 5 µM compound, mean of the two replicates, read-out: mean) was 5.22%; the inhibition at 5 µM (sheet LOPAC_screen_w_protease, LOPAC1280 primary screen with protease, 5 µM compound, replicate 1, read-out: Replicate_1) worked out at 4.83%; the inhibition at 5 µM (sheet LOPAC_screen_w_protease, LOPAC1280 primary screen with protease, 5 µM compound, replicate 2, read-out: Replicate_2) was determined as 5.61%.

In the case of `COc1cc2nc(N3CCN(C(=O)OCc4ccccc4)C(C(=O)NC(C)(C)C)C3)nc(N)c2cc1OC` [L-765,314], the mean under setting [10] stood at 1.212. The same molecule came in with a Replicate_1 under setting [11] of 3.331. The molecule further gave a Replicate_2 under setting [12] of -0.9073.

For `c1ccc2c(c1)CCCC2C1=NCCN1` (stereo not drawn) [Tetrahydrozoline hydrochloride], the inhibition at 5 µM under setting [13] was 2.26%, the inhibition at 5 µM under setting [14] amounted to 1.87% and the inhibition at 5 µM under setting [15] came out at 2.65%.

For `Cl.Cl.NCCNS(=O)(=O)c1cccc2cnccc12` [H-9 dihydrochloride], the mean (sheet LOPAC_screen_w_protease, primary screen with protease, 5 µM, mean of two replicates) was 0.3892. This molecule also showed a Replicate_1 (sheet LOPAC_screen_w_protease, primary screen with protease, 5 µM, replicate 1) of 0.9278. The Replicate_2 (sheet LOPAC_screen_w_protease, primary screen with protease, 5 µM, replicate 2) is recorded as -0.1494.

The molecule `Cl.O=C(O)C1CCCN(CCC=C(c2ccccc2)c2ccccc2)C1` (stereo not drawn) [SKF 89976A hydrochloride] gave a mean under setting [7] of 0.532. This molecule also showed a Replicate_1 under setting [8] of 1.548. The molecule further showed a Replicate_2 under setting [9] of -0.4841.

The molecule `COc1cc2c(cc1C(F)(F)F)N(C(=O)Nc1cc(F)cc(-c3cccnc3)c1)CC2` [SB 228357] displayed a mean under setting [4] of 2.5367. Moreover, the Replicate_1 under setting [5] came to 3.509. The Replicate_2 under setting [6] is given as 1.565.

Under “sheet LOPAC_screen_w_protease, primary screen with protease, compound at 5 µM, mean of two replicates”, `COc1c2c(nc3ccccc13)OC(C(C)(O)CO)C2` (stereo not drawn) [Dubinidine] displayed a mean of 2.93. For the same molecule, the Replicate_1 (sheet LOPAC_screen_w_protease, primary screen with protease, compound at 5 µM, replicate 1) was 4.833. The Replicate_2 (sheet LOPAC_screen_w_protease, primary screen with protease, compound at 5 µM, replicate 2) was 1.026.

Molecule `CCC1(c2ccc(N)cc2)CCC(=O)NC1=O` (racemic) [(±)-p-Aminoglutethimide] showed a mean under setting [4] of 2.443. This molecule gave a Replicate_1 under setting [5] of 1.25. For the same molecule, the Replicate_2 under setting [6] is 3.637.

Under setting [4], `CC(/C=C/c1cccc(Oc2ccc(F)cc2)c1)N(O)C(N)=O` (stereo not drawn) [BWB70C] showed a mean of 2.212. Moreover, under setting [5], the Replicate_1 stood at 2.534. Moreover, the Replicate_2 under setting [6] came to 1.889.

With `COc1cc2c(CCNC(C)=O)c[nH]c2cc1Cl` [6-Chloromelatonin], the “mean (LOPAC_screen_w_protease)” value under setting [16] was 1.65. Under setting [17], the “Replicate_1 (LOPAC_screen_w_protease)” value was determined as 0.5069. In addition, the “Replicate_2 (LOPAC_screen_w_protease)” value under setting [18] came out at 2.794.

Turning to `Nc1ccc(S(=O)(=O)Nc2ccnn2-c2ccccc2)cc1` [Sulfaphenazole], the inhibition at 5 µM by setting is: (sheet LOPAC_screen_w_protease, primary screen with protease, 5 µM, mean of two replicates, read-out: mean) 0.0259%; (sheet LOPAC_screen_w_protease, primary screen with protease, 5 µM, replicate 1, read-out: Replicate_1) 0.159%; (sheet LOPAC_screen_w_protease, primary screen with protease, 5 µM, replicate 2, read-out: Replicate_2) -0.107%.

For the molecule `CN(C)c1cc2c(Nc3ccc4c(cnn4Cc4ccccc4)c3)ncnc2cn1` [GW2974], under setting [16], the “mean (LOPAC_screen_w_protease)” value is reported as 1.489. In addition, under setting [17], the “Replicate_1 (LOPAC_screen_w_protease)” value is on record as 2.805. For the same molecule, the “Replicate_2 (LOPAC_screen_w_protease)” value under setting [18] is given as 0.1722.

As for `CN(C)CCCN1c2ccccc2Sc2ccc(Cl)cc21` [Chlorpromazine hydrochloride], the inhibition at 5 µM runs as follows: (read-out: Replicate_1) 0.794%; (read-out: Replicate_2) 0.374%; (read-out: mean) 0.584%.

With `O=C(O)Cc1ccc(O)c(O)c1` [3,4-Dihydroxyphenylacetic acid], the inhibition at 5 µM is, setting by setting: (read-out: Replicate_1 (LOPAC screen with protease)) 41.7%; (read-out: Replicate_2 (LOPAC screen with protease)) 44.4%; (read-out: mean (LOPAC screen with protease)) 43.1%.

For the molecule `NC(C(=O)O)C(O)C(=O)O` (racemic) [DL-threo-beta-hydroxyaspartic acid], under “LOPAC1280 primary screen with protease, 5 µM compound, mean of the two replicates”, the “mean (LOPAC_screen_w_protease)” value is 2.095. In addition, the “Replicate_1 (LOPAC_screen_w_protease)” value under setting [17] is listed as 2.385. Moreover, the “Replicate_2 (LOPAC_screen_w_protease)” value under setting [18] turned out to be 1.804.
